Source: paper PMC9409361, “EsigGOBP1: The Key Protein Binding Alpha-Phellandrene in Endoclita signifer Larvae” (International Journal of Molecular Sciences, 2022)
“Also recorded” adds a separate entry of the source. Read-outs that look alike come from different tables or passages of the source.

Columns and labels:
[1] = tested on: recombinant EsigGOBP1; assay: Fluorescence competition binding assay (FCBA) with 1-NPN probe; parameters: species or system Endoclita signifer; conditions: for binding affinities for EsigGOBP1 (in words): FCBA, ordered by Kd values; for Ki: calculated from IC50: Ki = [IC50]/(1 + [1-NPN]/K1-NPN); for IC50: competitive binding, 1-NPN and EsigGOBP1 both at 2 μM, ligands 2–24 μM, pH 7.4
Description: N-phenyl-1-naphthylamine (1-NPN) was selected for use as a selectively fluorescent probe to measure the affinity of ligand binding to recombinant EsigGOBP1 [20, 42]. Twelve volatiles (Table 1) from eucalyptus trunks and humus soil under eucalyptus plantation were collected, identified and screened using the dynamic headspace adsorption method, gas chromatograph coupled to mass selective detector, gas chromatograph electroantennal detection and Y-tube olfactometer bioassay (Table S1). […] A 2 μM solution of EsigGOBP1 was prepared in 20 mM Tris-HCl buffer (pH 7.4), and the ligands were dissolved in chromatographically pure methanol as 1 mM stock solutions. […] Intensity values corresponding to maximum fluorescence emission were plotted against free ligand concentrations to determine dissociation constants. K1-NPN values were calculated by Scatchard plots to linearize curves.

[2] = tested on: EsigGOBP1 expression in the head of E. signifer larvae; assay: qRT-PCR expression of EsigGOBP1 in larval heads after exposure to volatiles; assay type: in vivo, Endoclita signifer
Description: The 3rd and 5th instar larvae of E. signifer were exposed to 12 GC-EAD active volatile compounds (Table S1). The exposure method followed that of Llopis-Gimenez and Hu. Thirty-three 5th instar larvae were exposed to ten compounds and only methanol (control) with three biological replicates (50 μL of each odorant diluted to 10 g/L in methanol in a 50 mL jar for 24 h). Thereafter, the total RNA from the heads of these larvae were extracted and its concentration and purity measured. The residual genomic DNA in the total RNA was removed using DNase I (Thermo Scientific, Waltham, MA, USA) then purified RNA used to synthesize cDNA following the method of Zhang. The treatments carried out on the 5th instar larvae, were the same as applied to 3rd instar larvae (n = 27) (eight compounds, one control; three biological replicates). The sequence of the gene-specific primers of EsigGOBP1 were as follow: forward primer: 5′-[…]-3′; reverse primer: 5′-[…] TCTCGT-3′ [37]. Roche LIGHT CYCLE 480II (USA) and Genious 2X SYBR Green Fast qPCR Mix (No ROX) (No. RK21205; ABclonal, Wuhan, China) were used for a PCR reaction under a three-step amplification program. Each 20 µL real-time fluorescence quantification PCR (qRT-PCR) reaction mixture contained 10 µL of Genious 2X SYBR Green Fast qPCR Mix, […] ([…]), 2 µL of sample cDNA (2.5 ng of RNA), and […] of dH2O (sterile distilled water), with the following cycling parameters: 95 °C for 180 s, followed by 40 cycles of 95 °C for 5 s, 60 °C for 30 s, and 65 °C to 95 °C in increments of 0.5 °C for 5 s to generate melting curves. The sequences of the primers of the reference gene, GADPH were forward primer 5′-[…]-3′; reverse primer 5′-[…]-3′ [60]. The measurement of the expression of EsigGOBP1 in head, thorax and abdomen of 3rd instar larvae followed the protocol of Zhang. Each qRT-PCR reaction for each volatile exposure and tissues, was performed in three biological replicates and three technical replicates in Roche LIGHT CYCLE 480II. The expression of EsigGOBP1, from exposure to o-cymene and camphene served as the control for the 3rd and 5th instar larvae, respectively, and GADPH was used to measure the relative gene expressions by the 2^−ΔΔCT method. The 2^−ΔCT method was used to measure gene expressions in the tissues of 3rd instar larvae with 0.91 amplicons efficiencies. Differences in the expression of olfactory proteins were determined using a one-sample t-test. All analyses were implemented in SPSS Statistics 18.0, and values are presented as means ± SE.

[3] = tested on: E. signifer larvae; conditions: cited from earlier work; for influence on the behaviour of E. signifier: ref [35],[36]; for attraction in behavior choice assays: ref [33],[34]
[4] = competitive binding against 1-NPN, read-out: calculated Kd
[5] = 5th instar larvae, 24 h exposure to volatile
[6] = 3rd instar larvae, 24 h exposure to volatile

SMILES: CC(C)(O)c1ccccc1 [2-Phenyl-2-propanol]
- binding affinities for EsigGOBP1 (in words) [1]: low binding affinities
- Ki [1]: 2760 nM
- Kd [1, 4]: 2770 nM
- IC50 [1]: 22000 nM

SMILES: C=C(C)[C@H]1CC=C(C)CC1 [D-limonene]
- binding affinities for EsigGOBP1 (in words) [1]: high binding affinities
- Ki [1]: 1430 nM
- Kd [1, 4]: 1430 nM
- IC50 [1]: 11400 nM

SMILES: CCc1ccccc1C [benzene, 1-ethyl-2-methyl-]
- EsigGOBP1 expression vs control [2, 5]: upregulated

SMILES: CC12CCC(CC1)C(C)(C)O2 [Eucalyptol]
- binding affinities for EsigGOBP1 (in words) [1]: high binding affinities
- Ki [1]: 1270 nM
- Kd [1, 4]: 1270 nM
- IC50 [1]: 10100 nM
- EsigGOBP1 expression vs control [2, 6]: downregulated; also recorded: significantly lower
- EsigGOBP1 expression vs control [2, 5]: downregulated; also recorded: significantly lower

SMILES: CC1=CCC2CC1C2(C)C (stereo not drawn) [alpha-Pinene]
- binding affinities for EsigGOBP1 (in words) [1]: high binding affinities
- Ki [1]: 1240 nM
- Kd [1, 4]: 1240 nM
- IC50 [1]: 9860 nM

SMILES: C=CC(=O)OCCCC [Butyl acrylate]
- binding affinities for EsigGOBP1 (in words) [1]: high binding affinities
- Ki [1]: 901 nM
- Kd [1, 4]: 900 nM
- IC50 [1]: 7180 nM

SMILES: Cc1cc(C)cc(C)c1 [1,3,5-trimethyl-benzen]
- binding affinities for EsigGOBP1 (in words) [1]: low binding affinities
- Ki [1]: 4600 nM
- Kd [1, 4]: 4600 nM

SMILES: c1ccc2ccccc2c1 [Naphthalene]
- binding affinities for EsigGOBP1 (in words) [1]: low binding affinities
- Ki [1]: 2690 nM
- Kd [1, 4]: 2690 nM
- IC50 [1]: 21500 nM
- EsigGOBP1 expression vs control [2, 6]: upregulated

SMILES: CCc1ccc(C(C)=O)cc1 [4-ethylacetophenone]
- EsigGOBP1 expression vs control [2, 6]: downregulated; also recorded: extremely significantly lower

SMILES: c1ccc(Nc2cccc3ccccc23)cc1 [1-NPN, N-phenyl-1-naphthylamine, reference compound]
- Kd ([1]; binding curve and Scatchard plots, 1-NPN 2–24 μM, 2 μM EsigGOBP1, read-out: dissociation constant K1-NPN): 3380 nM

SMILES: CC1=CC[C@H](C(C)C)C=C1 [alpha-Phellandrene]
- binding affinities for EsigGOBP1 (in words) [1]: high binding affinities
- Ki [1]: 889 nM
- Kd [1, 4]: 890 nM
- IC50 [1]: 7080 nM
- EsigGOBP1 expression vs control [2, 6]: downregulated; also recorded: extremely significantly lower
- influence on the behaviour of E. signifier [3]: no obvious influence

SMILES: CCc1ccccc1CC [Benzene, 1,2-diethyl-]
- binding affinities for EsigGOBP1 (in words) [1]: high binding affinities
- Ki [1]: 792 nM
- Kd [1, 4]: 790 nM
- IC50 [1]: 6300 nM
- EsigGOBP1 expression vs control ([2]; 5th instar larvae, 24 h exposure to volatile, 1,2-diethyl-): upregulated
- influence on the behaviour of E. signifier [3]: no obvious influence

SMILES: C=C1C2CCC(C2)C1(C)C (centres unmarked) [Camphene]
- binding affinities for EsigGOBP1 (in words) [1]: high binding affinities
- Kd [1, 4]: 990 nM
- IC50 [1]: 7870 nM

SMILES: C=C1CCC2CC1C2(C)C (stereo not drawn) [β-Pinene]
- binding affinities for EsigGOBP1 (in words) [1]: high binding affinities
- Ki [1]: 1320 nM
- Kd [1, 4]: 1320 nM
- IC50 [1]: 10500 nM
- EsigGOBP1 expression vs control [2, 5]: downregulated
- EsigGOBP1 expression vs control ([2]; 5th instar larvae, 24 h exposure to volatile, listed as β-pinene): extremely significantly lower
- attraction in behavior choice assays ([3]; 5th instar larvae): significantly attracted

SMILES: Cc1ccccc1C(C)C [o-cymene]
- EsigGOBP1 expression vs control [2, 6]: downregulated; also recorded: extremely significantly lower
- EsigGOBP1 expression vs control [2, 5]: upregulated
- attraction in behavior choice assays ([3]; 3rd instar larvae): significantly attracted

SMILES: CC1=CCC2C(C1)C2(C)C (centres unmarked) [3-carene]
- EsigGOBP1 expression vs control [2, 6]: downregulated; also recorded: extremely significantly lower
